From US20260199500A1, “Camptothecin Derivative, Conjugate Thereof, Preparation Method Therefor and Medical Use Thereof” (priority 2023, published 2026)
Like-named read-outs stand apart in the source and are kept apart here.

Key:
[1] = tested on: PANC-1 (Pancreatic) cells; test: Inhibition of PANC-1 cells by compounds; format: cell-based; conditions: PY-X (DXD) set to 1
Protocol: (§1) On the day of the experiment, the cells were digested with 0.25% trypsin (Gibco, 25200-072), filtered through a 40 μm sieve, diluted with the corresponding medium to a cell density of 1×10^4 cells/mL, and inoculated into a 96-well white cell culture plate (Beyotime, FCP968), with 100 μL of cells added per well. The culture plate was placed in a 37° C. incubator (Thermo 311) containing 5% C02 and incubated for 24 hours. On the second day, the samples to be tested were prepared as a stock solution at a final concentration of 1M in DMSO (Sigma, D1650), then diluted with the corresponding medium to a final concentration of 200 nM, and subjected to four-fold serial dilutions, resulting in a total of 9 concentrations. 100 μL of the diluted sample was added to each well of the 96-well plate. The plate was placed in a 37° C. incubator containing 5% CO2 and incubated for 144 hours. The cell culture plate was then removed, and 100 μL of the cell viability assay reagent (CellTiter-Glo® Luminescent Cell Viability Assay, Promega, G7571) was added to each well. The reaction was carried out in the dark at room temperature for 5 minutes. Luminescence values were read using a microplate reader (TECAN SPARK), and data were processed using Graphpad Prism 7 software.

H1437 (NSCLC) cells = test: Inhibition of H1437 cells by compounds; format: cell-based; conditions: PY-X (DXD) set to 1
Protocol: as §1

[2] = tested on: SW1990 (Pancreatic) cells; test: Inhibition of SW1990 cells by compounds; format: cell-based; conditions: PY-X (DXD) set to 1
Protocol: as §1

[3] = Log D of small molecules (1-octanol / phosphate buffer pH 2.5 and pH 7.4, LC-MS/MS); format: physicochemical
Protocol: (1) Preparation of 100 mM phosphate buffer (PB) solution at pH 2.5 and pH 7.4 respectively: • a. Preparation of a solution of 100 mM H3PO4 in water: 14.7 M H3PO4 was diluted with water to a concentration of 100 mM H3PO4, and the pH was measured to be approximately 1.8. • b. Preparation of 100 mM NaH2PO4: 5.999 g of NaH2PO4 was dissolved in 500 mL of water and the pH was measured to be approximately 4.5. • c. Preparation of 100 mM Na2HPO4: 7.098 g of Na2HPO4 was dissolved in water to a volume of 500 mL and the pH was measured to be approximately 9.4. • d. Preparation of 100 mM PB (pH 2.5): 15 mL of 100 mM H3PO4 was added to a 50 mL tube, and then pH was adjusted to 2.5±0.05 with 100 mM NaH2PO4. • d. Preparation of 100 mM PB (pH 7.4): 15 mL of 100 mM Na2HPO4 was added to a 50 mL tube, and then pH was adjusted to 7.4±0.05 with 100 mM NaH2PO4.
(2) Saturation of PBs (pH 2.5 and pH 7.4) with 1-octanol: 10 mL of 1-octanol was added to 100 mL of 100 mM PBs (pH 2.5 and pH 7.4), and the mixture was shaken vigorously, and then allowed to stand overnight at room temperature for later use.
(3) Saturation of 1-octanol with PBs (pH 2.5 and pH 7.4): 10 mL of 100 mM PBs (pH 2.5 and pH 7.4) was added to 100 mL of 1-octanol, and the mixture was shaken vigorously, and then allowed to stand overnight at room temperature for later use.
2.1) 2 μL of 10 mM DMSO stock solution of the test compound were dispensed into test tubes, in duplicate.
2.2) 149 μL of PB saturated with 1-octanol (pH 2.5 and 7.4) were added to the tubes.
2.3) 149 μL of PB (pH 2.5 and 7.4) saturated with 1-octanol were added to the corresponding tubes.
2.4) Each tube was vigorously mixed for 2 minutes, then shaken at 800 rpm for 1 hour at room temperature.
2.5) The tubes were centrifuged at 4000 rpm for 5 minutes at room temperature.
2.6) Appropriate volumes of the buffer phase and 1-octanol phase samples were aliquoted.
2.7) These samples were diluted and analyzed using LC-MS/MS without running a calibration curve.
2.8) Data analysis: The log D value of each compound was calculated using the following formula: f

SW1573 (NSCLC) cells = test: Inhibition of SW1573 cells by compounds; format: cell-based; conditions: PY-X (DXD) set to 1
Protocol: as §1

N87 gastric cancer cells = test: Inhibitory activity of compounds on N87 gastric cancer cells (CellTiter-Glo, 144 h); format: cell-based; conditions: samples retested together; ratio of measured IC50 to DXD
Protocol: as §1
(§2) PY—Y is referenced in the document (WO2022170971A1); and PY-A is referenced in the document (WO2021148501A1).

H82 (SCLC) cells = test: Inhibition of H82 cells by compounds; format: cell-based; conditions: PY-X (DXD) set to 1
Protocol: as §1

HT-29 (Colon) cells = test: Inhibition of HT-29 cells by compounds; format: cell-based; conditions: PY-X (DXD) set to 1
Protocol: as §1

H1650 (NSCLC) cells = test: Inhibition of H1650 cells by compounds; format: cell-based; conditions: PY-X (DXD) set to 1
Protocol: as §1

A549 (NSCLC) cells = test: Inhibition of A549 cells by compounds; format: cell-based; conditions: PY-X (DXD) set to 1
Protocol: as §1

[4] = tested on: MDA-MB-468 breast cancer cells; test: Inhibitory activity of compounds on MDA-MB-468 breast cancer cells (CellTiter-Glo); format: cell-based; conditions: samples retested together; ratio of measured IC50 to DXD
Protocol: as §1, §2

Colo-205 (Colon) cells = test: Inhibition of Colo-205 cells by compounds; format: cell-based; conditions: PY-X (DXD) set to 1
Protocol: as §1

DMS53 (SCLC) cells = test: Inhibition of DMS53 cells by compounds; format: cell-based; conditions: PY-X (DXD) set to 1
Protocol: as §1

Compound	IC50 in PANC-1 cells, ratio to DXD [1]	IC50 in H1437 cells, ratio to DXD (H1437 (NSCLC) cells)	IC50 in SW1990 cells, ratio to DXD [2]	logD ([3]; 1-octanol / phosphate buffer pH 2.5, read-out: Log D2.5 (Oct/buff) Result)	logD ([3]; 1-octanol / phosphate buffer pH 7.4, read-out: Log D7.4 (Oct/buff) Result)	solubility in n-octanol compared with PY-4Car, PY-4Car3C and DXD ([3]; different pH values (2.5 and 7.4))	IC50 in SW1573 cells, ratio to DXD (SW1573 (NSCLC) cells)	IC50 on N87 cells, ratio to DXD (retest) (N87 gastric cancer cells)	IC50 in H82 cells, ratio to DXD (H82 (SCLC) cells)	IC50 in HT-29 cells, ratio to DXD (HT-29 (Colon) cells)	IC50 in H1650 cells, ratio to DXD (H1650 (NSCLC) cells)	IC50 in A549 cells, ratio to DXD (A549 (NSCLC) cells)	IC50 on 468 cells, ratio to DXD (retest) [4]	IC50 in Colo-205 cells, ratio to DXD (Colo-205 (Colon) cells)	IC50 in DMS53 cells, ratio to DXD (DMS53 (SCLC) cells)	logD ([3]; pH 2.5)	logD ([3]; pH 7.4)
CC[C@@]1(O)C(=O)OCc2c1cc1n(c2=O)Cc2c-1nc1cc(F)c(C)c3c1c2[C@@H](NC(=O)OCCCCO)CC3 [PY-4Car2, 4-hydroxybutyl((1S,9S)-9-ethyl-5-fluoro-9-hydroxy-4-methyl-10,13-dioxo-2,3,9,10,13,15-hexahydro-1H,12H-benzo[de]pyrano[3′,4′:6,7]indolizino[1,2-b]quinolin-1-yl)carbamate]	0.4865	0.9590	0.3573	2.44	2.43	belier solubility in n-octanol	0.4766	0.5046	0.5803	0.4854	0.7384	0.5433	0.8170	0.4478	–	–	–
CC[C@@]1(O)C(=O)OCc2c1cc1n(c2=O)Cc2c-1nc1cc(F)c(C)c3c1c2[C@@H](NC(=O)OCCO)CC3 [PY-4Car, 2-hydroxyethyl((1S,9S)-9-ethyl-5-fluoro-9-hydroxy-4-methyl-10,13-dioxy-2,3,9,10,13,15-hexahydro-1H,12H-benzo[de]pyran[3′,4:6,7]indolizino[1,2-b]quinolin-1-yl)carbamate]	0.4763	0.6526	0.4822	–	–	–	0.3187	0.3112	0.4523	0.3312	0.4491	0.4832	0.5193	0.2923	0.5151	2.1	2.09
CC[C@@]1(O)C(=O)OCc2c1cc1n(c2=O)Cc2c-1nc1cc(F)c(CO)c3c1c2CCC3 [PY-10, (S)-9-ethyl-5-fluoro-9-hydroxy-4-(hydroxymethyl)-1,2,3,9,12,15-hexahydro-10H,13H-benzo[de]pyrano[3′,4′:6,7]indolizino[1,2-b]quinolin-10,13-dione]	0.0915	0.1209	0.2133	–	–	–	0.1540	–	0.1525	0.0874	0.0456	0.0792	–	0.1546	0.1968	–	–
